From patent US8212016B2, “NPC1L1 orthologues” (Schering Corporation, priority 2006, dated 2012)
Read-outs that look alike come from different tables or passages of the source.

Legend:
monkey NPC1L1 = monkey NPC1L1 (Macaca mulatta, UniProt A0MJA5); test: Fluorescence NPC1L1 binding assay, HEK-293 cells, BODIPY-labeled compound 1; parameters: species or system rhesus monkey; conditions: Monkey NPC1L1, competition with compound 1; read-out: Ki
Description: (§1) Cell Culture and Membrane Preparation. Each plasmid pCR3.1 harboring NPC1L1 was prepared using standard molecular biology protocols. Stable cell lines expressing human, rhesus monkey, mouse, rat, hamster, canine or rabbit NPC1L1 were generated using Lipofectamine 2000 transfection reagent in HEK-293 cells according to the manufacturer's protocol. Cells were maintained in DMEM supplemented with 10% FBS, 100 U/ml pen/strep, and 500 μg/ml geneticin at 37° C., 5% CO2. All cell culture reagents were obtained from Invitrogen Life Technologies, (Carlsbad, Calif.). Cell membranes were prepared by lysing cells in 5 mM HEPES with protease inhibitors (Complete™ Protease Inhibitor Cocktail Tablets; Roche Diagnostics Corp., Indianapolis Ind.) for 15 min at 4° C. A membrane pellet was obtained by centrifuging the cell lysates at 12,000×g for 25 min. The membranes were resuspended in 5 mM HEPES with protease inhibitors and triturated with a 21G needle.
(§2) Fluorescence. Cells were plated into 384-well black/clear plates (BD Biosciences, Bedford Mass.) for binding experiments the following day. The media was aspirated. […] Media (20 μl) containing the indicated concentration of compound was then added to the wells. […] The binding reaction was allowed to proceed for 4 hours at 37° C. Subsequently the media was aspirated and the cells washed once with PBS.

[1] = intraduodenal delivery, first pass metabolism in the intestine; cited from earlier work
cholesterol absorption [2] = test: In vivo potency of ezetimibe (ED50); conditions: Canis lupus familiaris, Canine
cholesterol absorption [3] = test: In vivo potency of ezetimibe (ED50); conditions: Mesocricetus auratus, Hamster
[4] = test system: plasma and liver cholesterol; test: Percent cholesterol lowering in plasma and liver; assay type: in vivo; conditions: hamster
cholesterol absorption [5] = test: In vivo potency of ezetimibe (ED50); conditions: Primates, Monkey
[6] = following oral administration; cited from earlier work
cholesterol absorption [7] = test: In vivo potency of ezetimibe (ED50); conditions: Mouse
hamster NPC1L1 = hamster NPC1L1 (Mesocricetus auratus, UniProt A0MJA8); test: Fluorescence NPC1L1 binding assay, HEK-293 cells, BODIPY-labeled compound 1
Description: as §1, §2

human NPC1L1 = target: T1, human NPC1L1 (Homo sapiens, UniProt Q9UHC9, T1073A); test: as above; conditions: Human NPC1L1, competition with compound 1; read-out: Ki
T1 construct: expressed in transfected cells
T1 sequence (Q9UHC9 22-1332 isoform Q9UHC9-2 T1046A): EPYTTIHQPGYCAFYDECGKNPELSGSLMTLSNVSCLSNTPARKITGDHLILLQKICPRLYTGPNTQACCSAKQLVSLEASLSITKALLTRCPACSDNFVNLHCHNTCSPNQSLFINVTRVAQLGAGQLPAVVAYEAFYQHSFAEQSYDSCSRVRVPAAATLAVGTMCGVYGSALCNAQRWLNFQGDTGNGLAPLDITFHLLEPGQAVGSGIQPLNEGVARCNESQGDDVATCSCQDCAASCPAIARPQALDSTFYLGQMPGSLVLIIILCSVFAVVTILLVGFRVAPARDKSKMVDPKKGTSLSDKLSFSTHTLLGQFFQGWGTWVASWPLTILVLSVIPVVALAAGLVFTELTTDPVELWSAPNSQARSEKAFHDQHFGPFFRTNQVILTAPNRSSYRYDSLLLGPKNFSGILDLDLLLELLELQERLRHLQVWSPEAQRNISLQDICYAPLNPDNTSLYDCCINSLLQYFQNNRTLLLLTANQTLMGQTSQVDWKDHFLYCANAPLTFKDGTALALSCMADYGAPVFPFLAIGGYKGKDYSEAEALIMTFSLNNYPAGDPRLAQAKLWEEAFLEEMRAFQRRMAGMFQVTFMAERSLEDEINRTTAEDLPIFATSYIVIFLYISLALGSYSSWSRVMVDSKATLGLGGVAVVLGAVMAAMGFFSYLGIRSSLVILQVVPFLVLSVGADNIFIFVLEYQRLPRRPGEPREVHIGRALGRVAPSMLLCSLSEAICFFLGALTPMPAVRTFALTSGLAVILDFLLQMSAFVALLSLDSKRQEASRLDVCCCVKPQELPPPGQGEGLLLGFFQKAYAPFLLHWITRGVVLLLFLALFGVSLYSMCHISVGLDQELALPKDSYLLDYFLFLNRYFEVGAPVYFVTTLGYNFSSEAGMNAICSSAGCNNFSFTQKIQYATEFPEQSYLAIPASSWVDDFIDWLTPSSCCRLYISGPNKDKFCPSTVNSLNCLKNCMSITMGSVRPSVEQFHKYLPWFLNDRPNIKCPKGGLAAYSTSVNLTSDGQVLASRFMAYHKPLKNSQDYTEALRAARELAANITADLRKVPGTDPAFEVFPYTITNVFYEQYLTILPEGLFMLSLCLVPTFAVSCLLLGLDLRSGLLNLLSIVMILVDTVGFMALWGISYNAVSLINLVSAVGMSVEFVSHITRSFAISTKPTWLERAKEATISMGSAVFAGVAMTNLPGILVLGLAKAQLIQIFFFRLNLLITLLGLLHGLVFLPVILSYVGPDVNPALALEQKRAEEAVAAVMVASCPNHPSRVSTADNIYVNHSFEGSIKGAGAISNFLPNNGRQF
Description: as §1, §2

canine NPC1L1 = canine NPC1L1 (Canis lupus familiaris, UniProt A0MJA4); test: as above
Description: as §1, §2

rabbit NPC1L1 = rabbit NPC1L1 (Oryctolagus cuniculus, UniProt A0MJA7); test: as above
Description: as §1, §2

rat NPC1L1 = target: T2, rat NPC1L1 (Rattus norvegicus, UniProt Q6T3U3, A349V/E317P/G318E/K324N/L297S); test: as above; conditions: Rat NPC1L1, competition with compound 1; read-out: Ki
T2 construct: expressed in transfected cells
Description: as §1, §2

cholesterol absorption [8] = test: In vivo potency of ezetimibe (ED50); conditions: Rat
[9] = test system: ^14C-cholesterol absorption; test: Acute cholesterol absorption assay; assay type: in vivo; conditions: rat, intraduodenal; read-out: rat ED50, inhibition of cholesterol absorption
Description: Acute cholesterol absorption assay. ^14C-cholesterol absorption was determined acutely in rats using conditions previously described (Van Heek et al., J. Pharmacol. Exp. Ther. 283: 157-163 (1997)). Compounds were dissolved in rat bile and delivered (1.0 ml) intraduodenally by bolus injection via an intestinal catheter, followed by 1.0 ml saline rinse (0.9%). Following a 30 min incubation, a cholesterol emulsion containing 3 mg cholesterol and 2 μCi ^14C-cholesterol (3 ml) was delivered to each rat as a bolus via intestinal catheter, followed by 1 ml saline rinse. Animals were sacrificed 90 min later and ^14C-cholesterol levels in plasma, liver, intestinal contents, and intestinal wall were determined.

mouse NPC1L1 = target: T3, mouse NPC1L1 (Mus musculus, UniProt Q6T3U4, N476K); test: Fluorescence NPC1L1 binding assay, HEK-293 cells, fluorescent compound 2 as ligand
T3 construct: expressed in transfected cells
Description: as §1, §2
In an effort to show binding to mouse NPC1L1, several related ezetimibe analogs were examined as possible alternatives to fluorescently-labeled (BODIPY) ezetimibe glucuronide (compound 1) in the binding assay. Compound 2, which is a fluorescently labeled synthetic precursor for fluorescently-labeled (BODIPY) ezetimibe glucuronide (compound 1; Burnett et al., Bioorganic and Medicinal Chemistry Letters 12:315-318 (2002)), was identified as a viable option for detection of mouse NPC1L1 binding. Compound 2 contains a methyl ester substitution for the carboxylic acid on the glucuronide portion of the molecule (compound structures shown in FIG. 4A).

Question: Which Ki (monkey NPC1L1) does the source give for O=C1[C@H](CC[C@H](O)c2ccc(F)cc2)[C@@H](c2ccc(O)cc2)N1c1ccc(F)cc1 [compound 3, ezetimibe] here?
Answer: 900 nM

Question: And the “fraction of compound in portal plasma that is the glucuronide compound 4” value [1]?
Answer: > 95%

Question: What about the ED50 (cholesterol absorption [2]) of the same compound?
Answer: 0.007 mg/kg

Question: What about the ED50 (cholesterol absorption [3]) of the same compound?
Answer: 0.04 mg/kg

Question: And the “cholesterol lowering Liver” value ([4]; liver)?
Answer: 96%

Question: And the “cholesterol lowering Plasma” value ([4]; plasma)?
Answer: 26%

Question: What about the ED50 (cholesterol absorption [5]) of the same compound?
Answer: 0.0005 mg/kg

Question: And the “fraction of ezetimibe glucuronidated” value [6]?
Answer: 90%

Question: And the ED50 (cholesterol absorption [7])?
Answer: 0.7 mg/kg

Question: And the Ki (hamster NPC1L1; Hamster NPC1L1, competition with compound 1, read-out: Ki)?
Answer: 1530 nM

Question: And the Ki (hamster NPC1L1; Table 3, Hamster, read-out: Ki Hamster NPC1L1)?
Answer: 1530 nM

Question: And the Ki (human NPC1L1)?
Answer: 2240 nM

Question: And the Ki (canine NPC1L1; Canine NPC1L1, competition with compound 1, read-out: Ki)?
Answer: 770 nM

Question: And the Ki (canine NPC1L1; Table 3, Dog, read-out: Ki Dog NPC1L1)?
Answer: 770 nM

Question: What about the Ki (rabbit NPC1L1; Rabbit NPC1L1, competition with compound 1, read-out: Ki) of the same compound?
Answer: 2120 nM

Question: And the Ki (rabbit NPC1L1; Table 3, Rabbit, read-out: Ki Rabbit NPC1L1)?
Answer: 2100 nM

Question: And the Ki (rat NPC1L1)?
Answer: 970 nM

Question: And the ED50 (cholesterol absorption [8])?
Answer: 0.03 mg/kg

Question: What about the ED50 [9] of the same compound?
Answer: 0.0016 mg/kg

Question: And the Ki (mouse NPC1L1; Mouse NPC1L1, competition with compound 2, read-out: Ki)?
Answer: 5400 nM

Question: What about the Ki (mouse NPC1L1; Table 3, Mouse, read-out: Ki Mouse NPC1L1) of the same compound?
Answer: 9000 nM
